Source: patent publication US9771592B2, “Methods and compositions for treating or preventing pruritis” (The Johns Hopkins University, priority 2008, dated 2017)

Key:
[1] = tested on: DRG neurons; assay: Calcium imaging of cultured dissociated DRG neurons; type: cell-based, mouse; conditions: for effect on CQ-induced [Ca2+]i increase: WT DRG neurons
Procedure: Dorsal root ganglia from all spinal levels of 4-week old mice or rats were collected in cold DH10 (90% DMEM/F-12, 10% FBS, 100 U/ml penicillin, and 100 μg/ml Streptomycin, Gibco) and treated with enzyme solution (5 mg/ml Dispase, 1 mg/ml Collagenase Type I in HPBS without Ca^++ and Mg^++, Gibco) at 37° C. Following trituration and centrifugation, cells were resuspended in DH10, plated on glass cover slips coated with poly-D-lysine (0.5 mg/ml, Stoughton, Mass.) and laminin (10 μg/ml, Invitrogen), cultured in an incubator (95% O2 and 5% CO2) at 37° C. and used within 24 hours.

[2] = target: T1, MrgprA4 (Mus musculus, UniProt Q91WW2); assay: Calcium imaging of HEK293 cells transfected with Mrgpr-GFP constructs; type: cell-based; conditions: NPFF 2 μM
T1 construct: expressed in transfected cells; host or cells: HEK293
T1 sequence (Q91WW2 1-313): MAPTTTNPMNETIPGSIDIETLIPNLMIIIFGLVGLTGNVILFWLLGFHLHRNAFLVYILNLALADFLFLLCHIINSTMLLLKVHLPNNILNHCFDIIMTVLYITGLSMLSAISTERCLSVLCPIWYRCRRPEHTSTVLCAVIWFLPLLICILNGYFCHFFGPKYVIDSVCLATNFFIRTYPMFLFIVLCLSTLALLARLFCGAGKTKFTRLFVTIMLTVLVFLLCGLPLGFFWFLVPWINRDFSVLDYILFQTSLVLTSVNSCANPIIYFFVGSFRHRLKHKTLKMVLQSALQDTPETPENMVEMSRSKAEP
Description: (§1) Each of the twelve Mrgprs that were deleted in Mrgpr-clusterΔ^−/− mice were cloned into a mammalian expression vector (FIG. 1A), and transfected individually into human embryonic kidney (HEK) 293 cells. By fusing green fluorescent protein (GFP) to the C-termini of the Mrgpr coding sequences, both transfected cells and the proper membrane localization of the receptors was visualized. […] Increased [Ca^2+]i resulting from activation of the receptors was monitored by calcium imaging.
(§2) HEK293 cells were transfected with Mrgpr-expression constructs using Lipofectamine 2000 (Invitrogen) according to the manufacturer's protocol.

[3] = target: T2, MrgprA3 (Mus musculus, UniProt Q91WW3); assay: as above; type: cell-based; parameters: expressed in transfected cells; host or cells: HEK293
T2 sequence (Q91WW3 1-302): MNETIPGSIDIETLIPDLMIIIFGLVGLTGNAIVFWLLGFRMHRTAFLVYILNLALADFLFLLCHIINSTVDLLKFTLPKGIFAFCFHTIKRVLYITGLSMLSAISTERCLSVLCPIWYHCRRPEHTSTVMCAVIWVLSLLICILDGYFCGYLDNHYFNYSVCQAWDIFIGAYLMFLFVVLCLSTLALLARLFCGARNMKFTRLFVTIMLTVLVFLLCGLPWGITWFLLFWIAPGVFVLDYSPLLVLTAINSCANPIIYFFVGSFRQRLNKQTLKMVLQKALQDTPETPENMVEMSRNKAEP
Description: as §1
(§3) Serotonin also has a bicyclic structure. […] Quinine is another drug used to treat malaria and its side effects also include itch. However, it is unclear if quinine-induced itch is an allergic response.
(§4) HEK293 cells were cultured in growth medium consisted of 90% DMEM, 10% fetal bovine serum, 100 U/ml penicillin, and 100 μg/ml Streptomycin (Invitrogen) at 37° C. in the presence of […] and 5% CO2. HEK293 cells were transfected with Mrgpr-expression constructs using Lipofectamine 2000 (Invitrogen) according to the manufacturer's protocol.

[4] = target: T3, MrgprX1 (Homo sapiens, UniProt Q96LB2); assay: Rescue: Mrgpr-clusterΔ-/- DRG neurons electroporated with Mrgpr construct; type: cell-based, mouse
T3 sequence (Q96LB2 whole entry): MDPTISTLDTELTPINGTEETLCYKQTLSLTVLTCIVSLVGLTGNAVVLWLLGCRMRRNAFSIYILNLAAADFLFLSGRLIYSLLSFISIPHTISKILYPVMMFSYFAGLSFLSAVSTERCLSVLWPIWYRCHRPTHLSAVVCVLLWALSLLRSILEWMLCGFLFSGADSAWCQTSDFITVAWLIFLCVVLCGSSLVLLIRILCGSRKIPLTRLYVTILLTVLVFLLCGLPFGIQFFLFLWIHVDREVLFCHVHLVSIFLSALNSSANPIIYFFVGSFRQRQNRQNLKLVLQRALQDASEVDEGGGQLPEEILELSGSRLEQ
Procedure: (§5) To determine whether MrgprA3 or MrgprX1 can rescue the phenotypes of DRG neurons from Mrgpr-clusterΔ^−/− mice, the Mrgpr expression constructs used in the heterologous studies were electroporated into dissociated adult DRG neurons from these mice. After 24 hour in culture, expression and membrane localization of the transfected Mrgprs in the mutant neurons could be readily visualized by GFP (FIG. 8G).

[5] = tested on: mice; assay: Scratching behavior after pruritogen injection in mice; type: in vivo, mouse; conditions: for scratching in Mrgpr-clusterΔ-/- mice compared with WT: 30 min, histamine 10 μmol, compound 48/80 100 μg/50 μl, CQ 200 μg/50 μl, BAM8-22 50 μl of 1 mM
Description: Kuraishi et al., (1995). […] F. (2007) Nature 448, 700-703).

[6] = target: T4, MrgprC11 (Mus musculus, UniProt Q8CIP3); assay: Calcium imaging of HEK293 cells transfected with Mrgpr-GFP constructs; type: cell-based; conditions: BAM8-22 2 μM
T4 construct: expressed in transfected cells; host or cells: HEK293
T4 sequence (Q8CIP3 1-322): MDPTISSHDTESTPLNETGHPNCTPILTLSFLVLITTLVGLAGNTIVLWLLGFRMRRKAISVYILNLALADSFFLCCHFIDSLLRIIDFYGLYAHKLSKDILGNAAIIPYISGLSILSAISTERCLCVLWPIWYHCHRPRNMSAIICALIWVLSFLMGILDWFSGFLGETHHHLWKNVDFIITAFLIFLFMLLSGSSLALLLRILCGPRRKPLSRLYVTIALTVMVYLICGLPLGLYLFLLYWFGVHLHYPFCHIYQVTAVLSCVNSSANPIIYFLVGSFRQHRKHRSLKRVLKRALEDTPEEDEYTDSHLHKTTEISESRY
Description: as §1, §2

[7] = target: T5, rat MrgprC (Rattus norvegicus, UniProt Q8R4G1); assay: Rescue: Mrgpr-clusterΔ-/- DRG neurons electroporated with rat Mrgpr, calcium imaging; conditions: BAMS-22 10 μM
T5 sequence (Q8R4G1 1-323): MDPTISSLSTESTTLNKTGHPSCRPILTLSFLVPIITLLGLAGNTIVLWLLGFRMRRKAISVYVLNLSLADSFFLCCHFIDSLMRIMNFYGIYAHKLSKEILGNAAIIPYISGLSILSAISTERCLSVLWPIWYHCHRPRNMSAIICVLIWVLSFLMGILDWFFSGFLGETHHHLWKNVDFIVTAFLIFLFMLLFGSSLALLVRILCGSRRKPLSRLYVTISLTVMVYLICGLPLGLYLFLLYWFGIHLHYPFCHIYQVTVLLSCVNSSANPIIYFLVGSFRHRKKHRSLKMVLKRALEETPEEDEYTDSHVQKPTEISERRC

[8] = target: T3, MrgprX1; assay: Calcium imaging of HEK293 cells transfected with Mrgpr-GFP constructs; type: cell-based; conditions: BAM8-22 2 μM
Procedure: The human Mrgpr family (i.e. MrgprXs) is much smaller than the murine family.
as §3, §4

[9] = target: histamine H1 receptor (Homo sapiens, UniProt P35367); conditions: HEK293 cells; histamine 50 μM
Chain of histamine H1 receptor (P35367 whole entry, species assumed): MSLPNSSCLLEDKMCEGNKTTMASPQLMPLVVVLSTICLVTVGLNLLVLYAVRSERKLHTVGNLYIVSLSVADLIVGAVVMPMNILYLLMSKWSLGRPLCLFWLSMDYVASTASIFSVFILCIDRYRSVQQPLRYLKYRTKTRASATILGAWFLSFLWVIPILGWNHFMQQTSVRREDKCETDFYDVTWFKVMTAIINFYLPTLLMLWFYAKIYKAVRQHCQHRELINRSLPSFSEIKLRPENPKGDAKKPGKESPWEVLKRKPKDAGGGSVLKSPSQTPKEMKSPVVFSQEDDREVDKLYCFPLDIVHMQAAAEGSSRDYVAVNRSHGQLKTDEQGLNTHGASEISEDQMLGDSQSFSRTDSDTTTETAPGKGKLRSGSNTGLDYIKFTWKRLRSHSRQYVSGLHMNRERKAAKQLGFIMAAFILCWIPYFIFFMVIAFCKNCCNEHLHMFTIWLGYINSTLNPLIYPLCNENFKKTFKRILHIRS
Description: as §1, §4

[10] = target: T6, MrgprA1 (Mus musculus, UniProt Q91WW5); assay: Rescue: Mrgpr-clusterΔ-/- DRG neurons electroporated with Mrgpr construct; type: cell-based; parameters: expressed in transfected cells; host or cells: dissociated adult DRG neurons of Mrgpr-cluster-deleted mice; conditions: FMRF 2 μM
T6 sequence (Q91WW5 1-304): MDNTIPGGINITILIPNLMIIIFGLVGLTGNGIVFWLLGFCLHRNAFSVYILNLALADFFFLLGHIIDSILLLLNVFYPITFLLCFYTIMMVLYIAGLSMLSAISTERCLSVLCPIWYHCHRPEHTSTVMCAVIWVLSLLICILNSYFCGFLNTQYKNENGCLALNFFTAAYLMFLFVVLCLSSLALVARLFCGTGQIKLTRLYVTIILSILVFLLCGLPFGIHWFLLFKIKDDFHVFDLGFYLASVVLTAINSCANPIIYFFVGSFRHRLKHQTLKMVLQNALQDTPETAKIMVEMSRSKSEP
Procedure: as §5

[11] = target: T6, MrgprA1; assay: Calcium imaging of HEK293 cells transfected with Mrgpr-GFP constructs; type: cell-based; parameters: expressed in transfected cells; conditions: CQ 1 mM, FMRF 2 μM
Description: as §1, §2

[12] = tested on: rats; assay: Scratching behavior after intradermal injection in rats; conditions: 500 μg/50 μl, first 30 min

Q: With `O=C(O)CN(CCOCCOCCN(CC(=O)O)CC(=O)O)CC(=O)O` [EGTA] as the compound, how does the “effect on CQ-induced [Ca2+]i increase” value [1] read?
A: almost completely blocked

Q: With “NPFF: mammalian neuropeptide FF, peptide agonist of MrgprA4” as the compound, how does the “response of MrgprA4-expressing cells” value [2] read?
A: respond

Q: How did the DRG neurons responding ([1]; Mrgpr-clusterΔ-/- mice) turn out when “BAM8-22: bovine adrenal medulla peptide; MrgprC11-specific agonist (VGRPEWWMDYQKRYG)” was run?
A: no DRG neurons

Q: What about the “activation of MrgprA3 (increased [Ca2+]i)” value [3] of the same compound?
A: did not respond

Q: And the “[Ca2+]i response of MrgprX1-electroporated mutant neurons” value [4]?
A: sensitivity

Q: And the “scratching in Mrgpr-clusterΔ-/- mice compared with WT” value [5]?
A: dramatic reduction

Q: And the scratching behavior evoked ([5]; WT mice, intradermal injection, 50 μl of 1 mM)?
A: induced strong scratching behavior

Q: What about the “response of MrgprC11-expressing cells” value [6] of the same compound?
A: responded

Q: And the “response of rat MrgprC-electroporated Mrgpr-deficient neurons” value [7]?
A: responded

Q: What about the “activation of MrgprX1 (increased [Ca2+]i)” value [8] of the same compound?
A: responded

Q: How did the “percentage of DRG neurons responding, WT versus mutant cultures” value ([1]; histamine 50 μM) turn out when `NCCc1c[nH]cn1` [histamine] was run?
A: identical

Q: And the “activation of MrgprA3 (increased [Ca2+]i)” value [3]?
A: did not respond

Q: What about the “response of histamine H1 receptor-expressing cells” value [9] of the same compound?
A: strong response

Q: And the “scratching in Mrgpr-clusterΔ-/- mice compared with WT” value [5]?
A: No significant difference

Q: For `C=C[C@H]1C[N@@]2CC[C@H]1C[C@H]2[C@H](O)c1ccnc2ccc(OC)cc12` [quinine], which “activation of MrgprA3 (increased [Ca2+]i)” value [3] is on record?
A: weakly activates

Q: `NCCc1c[nH]c2ccc(O)cc12` [Serotonin] was tested. Which “activation of MrgprA3” value ([3]; 100 μM) did it give?
A: failed to activate

Q: With “FMRF: molluscan FMRFamide, peptide agonist of MrgprA1” as the compound, how does the “[Ca2+]i response of MrgprA1-electroporated mutant neurons” value [10] read?
A: strong response

Q: And the “response of MrgprA1-transfected cells (increased [Ca2+]i)” value [11]?
A: all transfected cells responded

Q: `N.N.N.N.N.N.N.N.N.N.N.N.N.N.[Cl-].[Cl-].[Cl-].[Cl-].[Cl-].[Cl-].[O-2].[O-2].[Ru+3].[Ru+3].[Ru+4]` [Ruthenium red] was tested. Which “effect on CQ-induced [Ca2+]i increase” value [1] did it give?
A: severely attenuated

Q: How did the “activation of MrgprA3 (increased [Ca2+]i)” value [3] turn out when `c1ccc2ncccc2c1` [quinoline] was run?
A: completely failed to activate

Q: And the scratching responses [12]?
A: did not

Q: What about the scratching behavior evoked ([5]; both WT and mutant mice) of the same compound?
A: did not evoke any scratching behavior

Q: What about the “activation of MrgprX1 (increased [Ca2+]i)” value [8] of the same compound?
A: completely failed to activate
